The values below come from patent US20190048321A1, “Macrophage Enrichment of Cancer Stem Cells” (UNIVERSITY OF SOUTH CAROLINA, priority 2017, published 2019).

Each structure is given as a SMILES string.

Assay [1] deals with CSCs in MDA-MB-231 breast tumor cells. The assay can be described thus: 3D PEGDA hydrogel co-culture of MDA-MB-231 cancer cells with macrophages treated with Paclitaxel (MDA+Mac/PTX). It counts as cell-based, human. As to the method: (§1) Polyethylene glycol was functionalized with acrylate end-groups by reaction with acryloyl chloride using well-established procedures to generate a photopolymerizable polyethylene glycol diacrylate (PEGDA). The PEGDA and a photoinitiator (4-(2-hydroxyethoxy)phenyl-(2-hydroxy-2-propyl) ketone (commercial name Irgacure-2959)) were dissolved in aqueous solution to generate a hydrogel precursor solution. Prior to cure, the hydrogel precursor solution was combined with MDA-MB-231 human breast cancer cells alone (MDA), with human spleen-derived macrophages alone (Mac) or with both (MDA+Mac).
(§2) To form the matrices, the cancer cells and/or macrophages were suspended in the PEGDA hydrogel precursor solution, the suspension was pipetted in a tissue culture plate as a thin film, and the film was photopolymerized with UV radiation to encapsulate the cells in the hydrogel matrix.
(§3) This co-culture system was also used to screen Paclitaxel (PTX) toxicity against CSCs. […] MDA cancer cells cultured alone with no PTX (MDA) grew by forming tumor spheres with mixed population of stem and differentiated cells and as shown the growing cells expressed CSC markers.

Assay [2] has as its system MDA-MB-231 human breast cancer cells. The assay can be described thus: 3D PEGDA hydrogel culture of MDA-MB-231 cancer cells alone treated with Paclitaxel (MDA+PTX). Format: cell-based. As to the method:
as §1, §2, §3

Another assay relates to MDA-MB-231 cells. The note with it: 2D tissue culture plates, previous studies; cited from earlier work.

With `CC(=O)O[C@H]1C(=O)[C@@]2(C)[C@H]([C@H](OC(=O)c3ccccc3)[C@]3(O)C[C@H](OC(=O)[C@H](O)[C@@H](NC(=O)c4ccccc4)c4ccccc4)C(C)=C1C3(C)C)[C@]1(OC(C)=O)CO[C@@H]1C[C@@H]2O` [PTX, Paclitaxel], the “cell growth / cell content” value in assay [1] (MDA cancer cells with macrophages in 5 kPa PEGDA matrix, treated with PTX (FIG. 4a)) was “effective in halting cell growth and the cell content decreased”. Besides, in assay [1] (MDA cancer cells with macrophages treated with PTX, with incubation (FIG. 4b-d)), the “expression of CSC markers (CD44, ABCG2, EGFR)” value is given as “sharply increased”. In addition, the “effectiveness against CSCs” value in assay [1] (MDA+Mac/PTX co-culture screen, MDA-MB-231 breast tumor cells) is recorded as “ineffective against CSCs”. Further, in assay [2] (MDA cancer cells alone treated with PTX (MDA+PTX) (FIG. 4a)), the cell number result was “increased somewhat”. The “expression of CSC markers” value in assay [2] (MDA cancer cells alone treated with PTX (MDA+PTX) (FIG. 4b-d)) is “increased significantly”. The “effectiveness against MDA-MB-231 cells” value in the assay on MDA-MB-231 cells is given as “effective”.
